In one assay the target is T1, wt-FLT3 (Homo sapiens, UniProt P36888).
T1 construct: FLT3 kinase catalytic domain (residues Y567˜S993); made in house; host or cells: Sf9 insect cells (baculovirus, pBac-PAK8-GST-FLT3-KD plasmid)
T1 sequence (P36888 567-993): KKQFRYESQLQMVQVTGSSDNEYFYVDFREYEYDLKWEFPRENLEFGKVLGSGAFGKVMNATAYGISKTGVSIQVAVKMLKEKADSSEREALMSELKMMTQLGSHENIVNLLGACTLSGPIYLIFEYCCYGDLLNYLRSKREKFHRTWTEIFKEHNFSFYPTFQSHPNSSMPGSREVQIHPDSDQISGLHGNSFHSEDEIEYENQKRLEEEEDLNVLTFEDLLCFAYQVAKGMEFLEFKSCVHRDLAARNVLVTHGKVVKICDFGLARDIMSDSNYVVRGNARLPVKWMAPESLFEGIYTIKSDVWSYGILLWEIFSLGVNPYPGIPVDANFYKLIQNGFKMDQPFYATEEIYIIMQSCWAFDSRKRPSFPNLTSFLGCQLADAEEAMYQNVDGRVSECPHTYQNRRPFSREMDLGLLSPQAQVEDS
Nature of the assay: FLT3 WT Kinase-Glo assay. The assay is classed as biochemical. As to conditions: for IC50: table of representative values, read-out: IC50 (nM) wt-FLT3; for pIC50: FLT3 WT Kinase-Glo, 1 μM ATP, read-out: IC50. As for the experimental part:
GST-FLT3-KD^WT containing the FLT3 kinase catalytic domain (residues Y567˜S993) were expressed in Sf9 insect cells transfected the baculovirus containing pBac-PAK8-GST-FLT3-KD plasmid. […] Following incubation, 50 μl Kinase-Glo Plus Reagent (Promega, Madison, Wis., USA) was added to each well and the mixture was incubated at 25° C. for 20 min. A 70-μL aliquot of each reaction mixture was transferred to a black microtiter plate and the luminescence was measured on Wallac Vector 1420 multilabel counter (PerkinElmer, Shelton, Conn., USA).

For a further assay, the target named is T2, VEGFR1 (Homo sapiens, UniProt P17948).
T2 construct: GST-VEGFR1 (residues R781-I1338); GST (N); made in house; host or cells: Sf9 insect cells
T2 sequence (P17948 781-1338): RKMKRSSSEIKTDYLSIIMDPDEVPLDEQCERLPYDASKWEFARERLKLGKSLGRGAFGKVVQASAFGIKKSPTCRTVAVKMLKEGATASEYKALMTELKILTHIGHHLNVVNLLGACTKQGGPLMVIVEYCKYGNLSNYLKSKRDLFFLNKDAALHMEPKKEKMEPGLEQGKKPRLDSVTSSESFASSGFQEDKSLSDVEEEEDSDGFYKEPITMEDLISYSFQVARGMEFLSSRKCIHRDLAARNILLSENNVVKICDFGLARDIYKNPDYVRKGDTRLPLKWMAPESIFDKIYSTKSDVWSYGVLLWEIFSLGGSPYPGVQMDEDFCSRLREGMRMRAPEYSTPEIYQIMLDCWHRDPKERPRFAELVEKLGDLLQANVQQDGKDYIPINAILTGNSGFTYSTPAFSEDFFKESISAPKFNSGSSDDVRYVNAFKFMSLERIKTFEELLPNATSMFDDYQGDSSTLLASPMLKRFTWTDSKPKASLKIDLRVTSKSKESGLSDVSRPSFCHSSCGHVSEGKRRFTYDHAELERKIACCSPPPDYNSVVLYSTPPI
Briefly: VEGFR1 Kinase-Glo kinase assay. The assay is classed as biochemical. The method, then:
(§1) The recombinant GST-VEGFR1 (residues R781-I1338) or GST-VEGFR2 (residues V789-V1356) containing kinase domain were expressed in Sf9 insect cells. The kinase assay were carried out in 96-well plates with tested compound in a final volume of 50 μl reaction at 30° C. for 120 minutes with following components: 25 mM HEPES pH 7.4, 10 mM MgCl2, 4 mM MnCl2, 0.5 mM Na3VO4, 2 mM DTT, 0.02% Triton X100, 0.01% BSA, 1 μM ATP, 2 μM polyGlu4:Tyr peptide, 50˜100 ng recombinant VEGFR1 or VEGFR2. Following incubation, 50 μl Kinase-Glo Plus Reagent (Promega, Madison, Wis., USA) was added to each well and the mixture was incubated at 25° C. for 20 min. A 70-μL aliquot of each reaction mixture was transferred to a black microtiter plate and the luminescence was measured on Wallac Vector 1420 multilabel counter (PerkinElmer, Shelton, Conn., USA).
(In general: Kinase-Glo reads ATP consumption through a luciferase reaction.)

For another assay, the target named is T3, VEGFR2 (Homo sapiens, UniProt P35968).
T3 construct: GST-VEGFR2 (residues V789-V1356); GST (N); made in house; host or cells: Sf9 insect cells
T3 sequence (P35968 789-1356): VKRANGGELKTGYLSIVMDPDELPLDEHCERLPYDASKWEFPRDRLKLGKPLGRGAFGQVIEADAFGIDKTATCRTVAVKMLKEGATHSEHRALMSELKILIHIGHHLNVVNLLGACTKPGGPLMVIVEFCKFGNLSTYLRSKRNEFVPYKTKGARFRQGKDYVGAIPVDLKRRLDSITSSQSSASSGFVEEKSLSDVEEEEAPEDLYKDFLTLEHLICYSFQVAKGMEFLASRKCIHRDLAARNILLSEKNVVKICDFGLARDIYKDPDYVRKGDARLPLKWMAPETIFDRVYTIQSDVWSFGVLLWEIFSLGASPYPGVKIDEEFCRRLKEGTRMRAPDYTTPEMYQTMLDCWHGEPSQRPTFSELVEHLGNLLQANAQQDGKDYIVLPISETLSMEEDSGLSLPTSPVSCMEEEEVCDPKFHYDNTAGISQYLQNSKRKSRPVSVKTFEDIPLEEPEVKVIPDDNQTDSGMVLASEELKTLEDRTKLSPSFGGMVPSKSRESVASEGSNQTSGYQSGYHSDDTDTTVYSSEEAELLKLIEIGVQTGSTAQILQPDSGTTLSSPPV
Nature of the assay: VEGFR2 Kinase-Glo kinase assay. The assay is classed as biochemical. As for the experimental part: as §1

The target of another assay is T4, Aurora A (Homo sapiens, UniProt O14965).
T4 construct: GST-Aurora A (residues S123-S401); GST (N); made in house; host or cells: Sf9 insect cells
T4 sequence (O14965 123-401): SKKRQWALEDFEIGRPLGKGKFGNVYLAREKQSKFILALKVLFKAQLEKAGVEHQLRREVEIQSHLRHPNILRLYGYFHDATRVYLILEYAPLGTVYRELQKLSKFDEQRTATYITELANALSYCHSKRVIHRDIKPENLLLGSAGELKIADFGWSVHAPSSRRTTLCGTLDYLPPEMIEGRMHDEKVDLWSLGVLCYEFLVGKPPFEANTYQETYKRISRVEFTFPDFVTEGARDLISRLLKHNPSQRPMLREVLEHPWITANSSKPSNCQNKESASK
Nature of the assay: Aurora kinase A Kinase-Glo kinase assay. The assay is classed as biochemical. As for the experimental part: The recombinant GST-Aurora A (residues S123-S401) containing kinase domain were expressed in Sf9 insect cells. The kinase assay were carried out in 96-well plates with tested compound in a final volume of 50 μl reaction at 37° C. for 90 minutes with following components: 50 mM Tris-HCl pH 7.4, 10 mM NaCl, 10 mM MgCl2, 0.01% BSA, 5 μM ATP, 1 mM DTT and 15 μM tetra(LRRASLG) peptide, and 150 ng recombinant Aurora A. Following incubation, 50 μl Kinase-Glo Plus Reagent (Promega, Madison, Wis., USA) was added to each well and the mixture was incubated at 25° C. for 20 min. A 70-μL aliquot of each reaction mixture was transferred to a black microtiter plate and the luminescence was measured on Wallac Vector 1420 multilabel counter (PerkinElmer, Shelton, Conn., USA).

For the next assay, the system named is MOLM-13 cell. Briefly: MTS cell viability assay. Particulars: Homo sapiens, MOLM-13, 72 h, table of representative values. The assay is classed as cell-based. The source says:
The leukemias cell lines MOLM-13, MV4:11, RSV4:11, MOLT-4, U937, and K562 were purchased from American Type Culture Collection (ATCC, Manassas, Va., USA). The non-leukemias cell lines HCC827, H1975, NCIH460, A431, Huh7, SF268, MCF-7, HCT-116, and normal human fetal fibroblast cell line Detriot 551 were purchased from American Type Culture Collection (ATCC, Manassas, Va., USA). All leukemias cell lines and HCC827, H1975, NCIH460, A431 were maintained in RPMI 1640 medium supplemented with 10% fetal bovine serum (FBS), 10 U/ml penicillin, and 10 µg/ml streptomycin at 37° C. and 5% CO2. The cell lines Huh7, SF268, MCF-7, and Detroit 551 were cultured in DMEM medium supplemented with 10% FBS, 0.01% nonessential amino acids, 10 U/ml penicillin, and 10 µg/ml streptomycin. HCT-116 were cultured in McCoy's 5A medium supplemented with 10% FBS, 0.01% nonessential amino acids, 10 U/ml penicillin, and 10 µg/ml streptomycin. To determine cell viability after drug treatment, assays were performed by seeding 10,000 cells (leukemias cell lines) or 2,500 cells (non-leukemias cell lines) per well in a 96-well culture plate. After 16 h, cells were then treated with vehicle or various concentrations of compound in medium for 72 h. Viable cells were quantitated using the MTS method (Promega, Madison, Wis., USA) according to the manufacturer's recommended protocol. The results were determined by measuring the absorbance at 490 nm using a plate reader (Victor2; PerkinElmer, Shelton, Conn., USA).

Where [1] appears, read: VEGFR1 assay, 1 μM ATP, bound in μM, read-out: IC50.
Where [2] appears, read: table of representative values, read-out: IC50 (nM) VEGFR1.
Setting [3] is: VEGFR2 assay, 1 μM ATP, bound in μM, read-out: IC50.
The mark [4] stands for this setting: table of representative values, read-out: IC50 (nM) VEGFR2.
[5] abbreviates: Aurora A assay, 5 μM ATP, bound in nM, read-out: IC50.
Where [6] appears, read: Aurora A assay, 5 μM ATP, bound in μM, read-out: IC50.
The mark [7] stands for this setting: table of representative values, read-out: IC50 (nM) Aurora A.
Where [8] appears, read: VEGFR1 assay, 1 μM ATP, bound in nM, read-out: IC50.
[9] abbreviates: VEGFR2 assay, 1 μM ATP, ranges in nM, read-out: IC50.

pIC50: −log10 of the molar value. Like-named read-outs stand apart in the source and are kept apart here.

A word on the IC50: it is the concentration that gives 50% inhibition. What is called GI50 is the concentration at which growth is held to half of that of the control. A low value points to more potent growth inhibition. As usually defined, the pIC50 is the negative decadic logarithm of the IC50, by convention in mol/L.

With `CCc1cc(NC(=O)Nc2ccc(-c3cc(NC(=O)c4ccc(OCCN5CCOCC5)cc4)[nH]n3)cc2C)no1` [Compound 46b, N1-3-[4-([(5-ethyl-3-isoxazolyl)amino]carbonylamino)-3-methylphenyl]-1H-5-pyrazolyl-4-(2-morpholinoethoxy)benzamide], the IC50 was 27 nM at wt-FLT3; less than 1 µM at VEGFR1 (setting [1]); 0.29 µM on VEGFR1 (setting [2]); less than 1 µM at VEGFR2 (setting [3]); 0.151 µM on VEGFR2 (setting [4]); less than 200 nM on Aurora A (setting [5]). Besides, the IC50 was less than 1000 nM on Aurora A (setting [6]) and 22 nM on Aurora A (setting [7]). This molecule came in with a GI50 in the assay on MOLM-13 cell of 1 nM.
With `CCc1cc(NC(=O)NCc2ccc(-c3cc(NC(=O)c4ccc(CN5CCN(C)CC5)cc4)[nH]n3)cc2)no1` [Compound 62b, N1-(3-4-[([(5-ethyl-3-isoxazolyl)amino]carbonylamino)methyl]phenyl-1H-5-pyrazolyl)-4-[(4-methylpiperazino)methyl]benzamide], the half-maximal inhibitory concentration (IC50) at wt-FLT3 is 26 nM; on VEGFR1 (setting [8]), less than 0.1 µM; at VEGFR1 (setting [1]), less than 1 µM; on VEGFR1 (setting [2]) it was 0.029 µM; at VEGFR2 (setting [3]), less than 1 µM; on VEGFR2 (setting [9]), 0.001 to 0.055 µM. Besides, the values for the IC50 on VEGFR2 (setting [4]) and at Aurora A (setting [7]) were 0.037 µM and more than 1000 nM, respectively. In the assay on MOLM-13 cell, this molecule gave a GI50 of 2 nM.
As to `CN1CCN(Cc2ccc(C(=O)Nc3cc(-c4ccc(CNC(=O)Nc5cc(C6CC6)on5)cc4)n[nH]3)cc2)CC1` [Compound 62d, N1-(3-4-[([(5-cyclopropyl-3-isoxazolyl)amino]carbonylamino)methyl]phenyl-1H-5-pyrazolyl)-4-[(4-methylpiperazino)methyl]benzamide], the IC50 on wt-FLT3 is 38 nM; at VEGFR1 (setting [1]), less than 1 µM; on VEGFR1 (setting [2]) it was 0.18 µM; on VEGFR2 (setting [3]), less than 1 µM; at VEGFR2 (setting [9]) it was 0.001 to 0.055 µM; on VEGFR2 (setting [4]) it was 0.023 µM. In the assay with MOLM-13 cell, this molecule came in with a GI50 of 3 nM.
Turning to `CN1CCN(c2ccc(C(=O)Nc3cc(-c4cccc(NS(=O)(=O)c5ccccc5)c4)n[nH]3)cc2)CC1` [Compound 12, N1-(3-3-[(phenylsulfonyl)amino]phenyl-1H-5-pyrazolyl)-4-(4-methylpiperazino)benzamide], the pIC50 at wt-FLT3 is 7.70 to 9.00. Moreover, the IC50 at VEGFR1 (setting [1]) was less than 1 µM; at VEGFR2 (setting [3]), less than 1 µM; at VEGFR2 (setting [9]), 0.055 to 0.4 µM; at Aurora A (setting [6]), less than 1000 nM.
Consider `CN1CCN(c2ccc(C(=O)Nc3cc(-c4ccc(CNC(=O)OCc5ccccc5)cc4)n[nH]3)cc2)CC1` [Compound 70, Benzyl-N-[4-(5-[4-(4-methylpiperazino)benzoyl]amino-1H-3-pyrazolyl)benzyl]carbamate], for which the pIC50 at wt-FLT3 is 7.70 to 9.00. The IC50 is less than 0.1 µM on VEGFR1 (setting [8]); less than 1 µM at VEGFR1 (setting [1]); less than 1 µM on VEGFR2 (setting [3]); 0.055 to 0.4 µM at VEGFR2 (setting [9]); less than 1000 nM at Aurora A (setting [6]).
Turning to `Cc1cc(-c2cc(NC(=O)c3ccc(OCCN4CCOCC4)cc3)[nH]n2)ccc1NC(=O)Nc1cc(C2CC2)on1` [Compound 46c, N1-3-[4-([(5-cyclopropyl-3-isoxazolyl)amino]carbonylamino)-3-methylphenyl]-1H-5-pyrazolyl-4-(2-morpholinoethoxy)benzamide], the IC50 was 38 nM on wt-FLT3; less than 0.1 µM at VEGFR1 (setting [8]); less than 1 µM at VEGFR1 (setting [1]); 0.053 µM on VEGFR1 (setting [2]); less than 1 µM on VEGFR2 (setting [3]); 0.001 to 0.055 µM on VEGFR2 (setting [9]). In addition, the IC50 on VEGFR2 (setting [4]) is 0.037 µM; at Aurora A (setting [5]) it was less than 200 nM; on Aurora A (setting [6]) it was less than 1000 nM; on Aurora A (setting [7]), 41 nM. Moreover, in the assay with MOLM-13 cell, the GI50 came out at 2 nM.
On to `O=C(NCc1ccc(-c2cc(NC(=O)c3ccc(OCCN4CCOCC4)cc3)[nH]n2)cc1)Nc1cc(C2CC2)on1` [Compound 59d, N1-(3-4-[([(5-cyclopropyl-3-isoxazolyl)amino]carbonylamino)methyl]phenyl-1H-5-pyrazolyl)-4-(2-morpholinoethoxy)benzamide], for which the half-inhibitory concentration (IC50) is 21 nM on wt-FLT3; less than 1 µM at VEGFR1 (setting [1]); 0.342 µM at VEGFR1 (setting [2]); less than 1 µM on VEGFR2 (setting [3]); 0.001 to 0.055 µM on VEGFR2 (setting [9]); 0.045 µM at VEGFR2 (setting [4]). The GI50 with MOLM-13 cell came out at 6 nM.

The values are drawn from patent publication US9255072B2, “Pyrazole compounds and thiazole compounds as protein kinases inhibitors” (National Health Rsearch Institutes, priority 2011, dated 2016).
